For one data set, the system named is PDE4L. The following applies: cited from earlier work.
The conditions of data set [1]: cited from earlier work.
In a further data set the test system is PDE4H. To be noted: cited from earlier work.
Data set [2] concerns PDE4. On the set-up: method as in PMID 15476679. The following applies: cited from earlier work.
Data set [3] has as its system high-affinity rolipram-binding sites (HARBSs) of guinea pig brain cell membranes. Description: Displacement of 2 nM [3H]-rolipram from high-affinity rolipram-binding sites (PDE4H). The following applies: 2 nM [3H]-rolipram, 30°C, 1 h; read-out: EC50 (PDE4H) for displacing [3H]-rolipram binding. How it is done:
When the above-mentioned guinea pigs were sacrificed, the whole brains were removed and homogenized with a glass/Teflon homogenizer (Glas-Col, Terre Haute, IN, USA) in 10 volumes of cold medium (pH 6.5) containing 20 mM Bis-Tris, 2 mM benzamidine, 2 mM EDTA, 50 mM sodium chloride, 0.1 mM PMSF, and 1 mM dithiothreitol. At 4°C, the homogenate was centrifuged at 170 g for 5 min to remove connective tissues and blood vessels. The suspended homogenate was then re-centrifuged at 40,000 g for 30 min to separate the cytosolic and particulate portions. The particulate portion was re-suspended in a suspension at a concentration of 400 mg/ml (wet weight/volume), after washing three times with homogenizing buffer. The particulate portion mainly consisted of cell membranes. […] Briefly, the reaction buffer consisted of 50 mM Tris-HCl and 5 mM MgCl2 (pH 7.5). […] After 1 h, the reaction was terminated by moving the reaction vessel into crushed ice. Then the reaction mixture was transferred onto Whatman GF/B glass-fiber filters, which were soaked in a 0.3% polyethyleneimine solution in a mini-funnel.

In data set [4] the test system is PDE4. Description: Inhibition of PDE4 activity, two-step procedure and Lineweaver-Burk analysis. The data set is classed as biochemical, guinea pig. On the procedure:
(§1) Activities of PDE1~5 in the homogenate of guinea pig lungs or hearts were measured by a two-step procedure according to the previous method, using cAMP with [^3H]-cAMP or cGMP with [^3H]-cGMP as substrates. […] The reagents and homogenate were mixed on ice, and the reaction was initiated by transferring the mixture to a water bath at 37°C. Following a 30-min incubation, the reaction was stopped by transferring the reaction vessel to a bath of boiling water for 3 min. After cooling on ice, 20 μl of a 1 mg/ml solution of Crotalus atrox snake venom was added to the reaction mixture, and the mixture was incubated at 37°C for 10 min. Unreacted [^3H]-cAMP or [^3H]-cGMP was removed by the addition of 500 μl of a 1-in-1 Tris-HCl (40 mM) buffer suspension of Dowex resin (1 × 8-200) with incubation on ice for 30 min. Each tube was then centrifuged at 3700 g for 2 min, and 150 μl of the supernatant was removed for liquid scintillation counting. […] The total protein in each fraction used was assayed according to a previous method. PDE activities are reported as nmol/mg/min.

The test system of the next data set is PDE4 subtypes (A~D). On the set-up: method as in PMID 16458289. The following applies: cited from earlier work.
The subject of a further data set is PDE1. Description: Inhibition of PDE1 activity, two-step procedure. The data set is classed as biochemical. The following applies: homogenate of guinea pig lungs or hearts. On the procedure: as §1
The subject of data set [5] is duration of xylazine/ketamine-induced anesthesia. The data set can be described thus: Xylazine/ketamine-induced anesthesia. To be noted: 0.25 h before anesthesia. On the procedure:
After loss of the righting reflex (i.e., when a mouse remained on its back and no longer spontaneously righted itself to a prone position), the duration of anesthesia was measured until its return as the endpoint.

Data set [6] deals with ovalbumin-induced airway inflammation. On the set-up: method as in PMID 21287361. The following applies: compared with the ovalbumin-induced group; H&E and alcian blue-PAS staining; cited from earlier work.
Data set [7] deals with xylazine/ketamine-induced anesthesia. On the set-up: method as in PMID 11786486. The following applies: rats; cited from earlier work.
The next data set concerns emesis. On the set-up: method as in PMID 11114405. The following applies: ferrets; cited from earlier work.
For a further data set, the system named is PDE3. The data set can be described thus: Inhibition of PDE3 activity, two-step procedure. The following applies: homogenate of guinea pig lungs or hearts. The data set is classed as biochemical. How it is done: as §1

We go through 13 compounds from article PMC3225327 (Journal of Biomedical Science, 2011).

What is called EC50 is the midpoint of the concentration-response curve. The Ki is the equilibrium dissociation constant of an inhibitor or competing ligand from its target. Usually IC50 stands for the concentration at which inhibition is half-maximal.

In the case of `O=C(Nc1c(Cl)cncc1Cl)C(=O)c1cn(Cc2ccc(F)cc2)c2ccc(O)cc12` [AWD 12-281, N-(3,5-dichloro-pyrid-4-yl)-[1-(4-fluorobenzyl)-5-hydroxy-indole-3-yl]-glyoxylic acid amide], the PDE4L value in the data set with PDE4L is reported as 9.7 nM. Besides, the “efficacy in clinical trials for asthma and COPD” value in [1] is reported as “lack of efficacy”. Also, in the data set with PDE4H, the PDE4H value is on record as 104 nM and the PDE4H/PDE4L ratio result is “approximately 11”.

Take `COc1ccc(C2CC(=O)c3c(O)cc(O)cc3O2)cc1O` (centres unmarked) [hesperetin, 5,7,3'-trihydroxy-4'-methoxyflavanone]: the “selectivity of PDE inhibition” value in the data set on PDE4 [2] was “selectively inhibit PDE4 activity”.

With `CCCCOc1cc(CC2CNC(=O)N2)ccc1OC` (centres unmarked) [Ro 20-1724, 4-(3-butoxy-4-methoxybenzyl)-2-imidazolidinone, reference compound], the EC50 in [3] is 0.087 ± 0.029 µM. Besides, in the data set with PDE4 [4] (Lineweaver-Burk analysis, inhibitor 1~10 μM), the “mode of PDE4 inhibition” value is recorded as “competitively inhibited”. Besides, the inhibitory constant (Ki) at PDE4 [4] (Lineweaver-Burk analysis, inhibitor 1~10 μM, substrate cAMP, read-out: dissociation constant for inhibitory binding (Ki), PDE4) was 8.1 ± 2.4 µM. The same compound yielded an IC50 in the data set on PDE4 [4] (homogenate of guinea pig lungs or hearts) of 4.3 ± 2.1 µM.

Regarding `CCOc1cc([C@@H](CS(C)(=O)=O)N2C(=O)c3cccc(NC(C)=O)c3C2=O)ccc1OC` [apremilast], in data set [1] (oral), the “efficacy in severe plaque-type psoriasis” value is listed as “effective”.

For the compound `COc1ccc([C@]2(C#N)CC[C@@H](C(=O)O)CC2)cc1OC1CCCC1` [cilomilast], the PDE4L value in the data set on PDE4L is 120 nM. Moreover, the “tolerability: diarrhea and nausea” value in data set [1] (COPD phase III study, 15 mg twice daily over 6 months) is “higher frequencies of diarrhea and nausea than a placebo”. In the data set on PDE4 subtypes (A~D), the “selectivity among PDE4 subtypes” value is “higher potency for PDE4D compared to PDE4A and PDE4B”. Also, in the data set with PDE4H, the PDE4H value is on record as 117.8 nM and the PDE4H/PDE4L ratio is 1.

For the compound `CCOC(=O)C1=C[C@]2(CC)CCCN3CCc4c(n1c1ccccc41)[C@@H]32` [vinpocetin, Vinpocetine, reference compound], the IC50 in the data set with PDE1 came out at 42.3 ± 5.8 µM.

For `COc1ccc(C2CNC(=O)C2)cc1OC1CCCC1` (centres unmarked) [Rolipram, rolipram], the “effect on duration of xylazine/ketamine-induced anesthesia” value in data set [5] (0.01~1 μmol/kg s.c.) was “dose-dependently shortened”; in data set [5] (0.01~1 μmol/kg s.c., listed as rolipram) it was “reversed the anesthesia”; in [5] (0.1 and 1 μmol/kg s.c.), “significantly shortened”. In the data set with PDE4H, the PDE4H/PDE4L ratio is on record as 0.01~0.001.

On to `COc1ccc([C@@H]2CC(=O)c3c(O)cc(O[C@@H]4O[C@H](CO[C@@H]5O[C@@H](C)[C@H](O)[C@@H](O)[C@H]5O)[C@@H](O)[C@H](O)[C@H]4O)cc3O2)cc1O` [hesperidin], for which the “effect on inflammatory cell infiltration and mucus hypersecretion in lung” value in data set [6] is “inhibit inflammatory cell infiltration and mucus hypersecretion”.

For `CN1CC[C@]2(CCN3CCc4c(oc5ccccc45)[C@@H]3C2)N(C)C1=O.Cl` [MK-912], the “effect on xylazine/ketamine-induced anesthesia” value in data set [7] was “reverse xylazine/ketamine-induced anesthesia”. For the same compound, in the data set on emesis, the vomiting entry was “trigger vomiting”.

Turning to `Clc1cccc(Cl)c1N=C1NCCN1` [clonidine], in the data set with emesis, the “effect on emesis induced by PDE4 inhibitors” value was “prevented emesis”.

For `COc1cccc(Nc2c(C(N)=O)cnc3c(C)cc(S(=O)(=O)c4cccc(C(=O)N(C)C)c4)cc23)c1` [GSK256066], the “efficacy in trials in asthma” value in [1] (inhaled) is listed as “demonstrated efficacy”.

In the case of `O=C(Nc1c(Cl)cncc1Cl)c1ccc(OC(F)F)c(OCC2CC2)c1` [roflumilast], the PDE4L value with PDE4L is on record as 0.8 nM. Besides, in data set [1] (patients with moderate-to-severe COPD, compared to placebo), the “mean pre- and post-bronchodilator FEV1” value was “significantly improve”. Moreover, the “nausea, diarrhea, weight loss, and headaches” value in data set [1] (patients with moderate-to-severe COPD) is listed as “more frequent”. Further, in the data set on PDE4 subtypes (A~D), the “selectivity among PDE4 subtypes” value was “non-selective for these four PDE4 subtypes”. In the data set on PDE4H, the PDE4H value is listed as 2.4 nM and the PDE4H/PDE4L ratio is on record as 3.

Consider `Cc1[nH]c(=O)c(C#N)cc1-c1ccncc1` [milrinone, reference compound], for which half-maximal inhibition in the data set on PDE3 (IC50) was put at 2.5 ± 1.6 µM.
